# Test results as given in PubChem BioAssay AID328 (DTP/NCI, 2004).
# Toxic doses and inconclusive results are not listed.
# Tests used:
# [1] = system: BDF1 mice, P388 leukemia ip, median survival T/C; experiment: NCI In Vivo Anticancer Drug Screen. Data for tumor model P388 Leukemia (intraperitoneal) in B6D2F1 (BDF1) mice; conditions: endpoint: median survival time, higher = longer survival
# Procedure, shortened: (§1)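 Survival ratio, drug arm over vehicle arm, in mice with a transplanted tumour.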
# [2] = system: BDF1 mice, P388 leukemia ip; experiment: as above; conditions: endpoint: mean survival time, higher = longer survival
# Procedure, shortened: as §1
# [3] = dose: 200.0 mg/kg/injection, schedule: Q01DX009 (ip), vehicle: saline with Tween-80
compound,measurement,setting,value
C/C=C/c1cc2c(c(=O)o1)C(=O)[C@@H](O)[C@H](C)O2,T/C,"[1]; dose: 11.0 mg/kg/injection, schedule: Q01DX010 (ip), vehicle: other",120 % of control
same,T/C,"[1]; dose: 25.0 mg/kg/injection, schedule: Q01DX010 (ip), vehicle: other",154 % of control
same,T/C,"[1]; dose: 50.0 mg/kg/injection, schedule: Q01DX010 (ip), vehicle: other",150 % of control
same,T/C,"[1]; dose: 100.0 mg/kg/injection, schedule: Q01DX010 (ip), vehicle: other",150 % of control
same,T/C,"[2]; dose: 25.0 mg/kg/injection, schedule: Q01DX010 (ip), vehicle: carboxymethylcellulose (CMC)",119 % of control
CC1(C)C(=O)C(O)=C[C@H]2C1=CC[C@@H]1[C@]2(C)C(=O)C[C@]2(C)[C@@H]([C@@](C)(O)C(=O)CC(O)C(C)(C)O)C(O)C[C@@]12C (stereo not given in full),T/C,"[2]; dose: 18.0 mg/kg/injection, schedule: Q01DX010 (ip), vehicle: carboxymethylcellulose (CMC)",99 % of control
CCOC(CN(Cc1ccc(OCc2ccccc2)c(OC)c1)S(=O)(=O)c1ccc(C)cc1)OCC,T/C,"[2]; dose: 25.0 mg/kg/injection, schedule: Q01DX009 (ip), vehicle: water",93 % of control
same,T/C,"[2]; dose: 50.0 mg/kg/injection, schedule: Q01DX009 (ip), vehicle: water",97 % of control
same,T/C,"[2]; dose: 100.0 mg/kg/injection, schedule: Q01DX009 (ip), vehicle: water",93 % of control
same,T/C,"[2]; dose: 200.0 mg/kg/injection, schedule: Q01DX009 (ip), vehicle: water",90 % of control
C1=CCC(COC(c2ccccc2)(c2ccccc2)c2ccccc2)C(COC(c2ccccc2)(c2ccccc2)c2ccccc2)C1 (stereo not given),T/C,"[1]; dose: 100.0 mg/kg/injection, schedule: Q01DX001 (ip), vehicle: saline with Tween-80",93 % of control
same,T/C,"[1]; dose: 200.0 mg/kg/injection, schedule: Q01DX001 (ip), vehicle: saline with Tween-80",96 % of control
same,T/C,"[1]; dose: 400.0 mg/kg/injection, schedule: Q01DX001 (ip), vehicle: saline with Tween-80",88 % of control
Cc1c(C)c(Br)c(C)c(-c2c(O)c(Br)c(-c3c(C)c(C)c(C)c(Br)c3C)c(O)c2Br)c1C,T/C,"[1]; dose: 100.0 mg/kg/injection, schedule: Q04DX003 (ip), vehicle: saline with Tween-80",100 % of control
same,T/C,"[1]; dose: 200.0 mg/kg/injection, schedule: Q04DX003 (ip), vehicle: saline with Tween-80",90 % of control
same,T/C,"[1]; dose: 400.0 mg/kg/injection, schedule: Q04DX003 (ip), vehicle: saline with Tween-80",90 % of control
CCOC(=O)/C=C/C(C(=O)OCC)C(=O)OCC,T/C,"[1]; dose: 75.0 mg/kg/injection, schedule: Q04DX003 (ip), vehicle: saline with Tween-80",95 % of control
same,T/C,"[1]; dose: 150.0 mg/kg/injection, schedule: Q04DX003 (ip), vehicle: saline with Tween-80",120 % of control
COC(=O)C1CN1C(c1ccccc1)(c1ccccc1)c1ccccc1 (stereo not given),T/C,[1]; [3],95 % of control
same,T/C,"[1]; dose: 400.0 mg/kg/injection, schedule: Q01DX009 (ip), vehicle: saline with Tween-80",87 % of control
[NH-]C(CO)C(=O)O.[NH-]C(CO)C(=O)O.[Pt+2] (stereo not given),T/C,"[1]; dose: 12.5 mg/kg/injection, schedule: Q01DX009 (ip), vehicle: distilled water + Tween-80",115 % of control
same,T/C,"[1]; dose: 25.0 mg/kg/injection, schedule: Q01DX009 (ip), vehicle: distilled water + Tween-80",117 % of control
same,T/C,"[1]; dose: 50.0 mg/kg/injection, schedule: Q01DX009 (ip), vehicle: distilled water + Tween-80",115 % of control
same,T/C,"[1]; dose: 100.0 mg/kg/injection, schedule: Q01DX009 (ip), vehicle: distilled water + Tween-80",115 % of control
C#CC(C)(C)OCC(O)CCl (stereo not given),T/C,"[1]; dose: 50.0 mg/kg/injection, schedule: Q01DX009 (ip), vehicle: saline",95 % of control
same,T/C,"[1]; dose: 100.0 mg/kg/injection, schedule: Q01DX009 (ip), vehicle: saline",100 % of control
same,T/C,"[1]; dose: 100.0 mg/kg/injection, schedule: Q04DX003 (ip), vehicle: saline",91 % of control
same,T/C,"[1]; dose: 200.0 mg/kg/injection, schedule: Q01DX009 (ip), vehicle: saline",91 % of control
same,T/C,"[1]; dose: 200.0 mg/kg/injection, schedule: Q04DX003 (ip), vehicle: saline",100 % of control
same,T/C,"[1]; dose: 400.0 mg/kg/injection, schedule: Q04DX003 (ip), vehicle: saline",112 % of control
[CH3][Hg][Cl],T/C,"[1]; dose: 0.25 mg/kg/injection, schedule: Q01DX009 (ip), vehicle: saline",109 % of control
same,T/C,"[1]; dose: 0.5 mg/kg/injection, schedule: Q01DX009 (ip), vehicle: saline",100 % of control
same,T/C,"[1]; dose: 1.0 mg/kg/injection, schedule: Q01DX009 (ip), vehicle: saline",100 % of control
O=C(O)COc1ccc(Cl)cc1Cl,T/C,"[1]; dose: 50.0 mg/kg/injection, schedule: Q01DX009 (ip), vehicle: saline with Tween-80",118 % of control
same,T/C,[1]; [3],90 % of control
